From patent US7745401B2, “Antifungal peptides and methods of use thereof” (The Board of Regents of the University of Oklahoma, priority 2005, dated 2010)
Entries after “also recorded” stand apart in the source; their conditions may differ. Where a SMILES comes first, the peptide text is derived from it.

Legend:
[1] = system: E. coli lipopolysaccharide (LPS); settings: conscious rat; cited from earlier work
C. glabrata = experiment: In vitro candidacidal assay, C. glabrata; assay type: cell-based; settings: one isolate of three; 400 μg/ml (150 μM)
Description: (§1) Isolates used in this study included Candida albicans (ATCC 28367), three fluconazole sensitive mucosal isolates of C. albicans, designated A-22, A-111 and A-155, three fluconazole resistant mucosal isolates of C. albicans designated A-46, A-5, and A-20, and a blood isolate of C. albicans designated WDO. Isolates were stored frozen at −70° C. and streaked onto Sabouraud Dextrose Agar (Sigma, St. Louis, Mo.) plates and maintained on plates at 4° C., with subculturing onto new plates approximately every 10 days for the duration of the studies. Fluconazole resistance was evaluated. Three clinical isolates of C. glabrata, two clinical isolates of C. dubliniensis, and single isolate each of C. krusei, C. guilliermondii, C. parapsilosis, C. pseudotropicalis and C. tropicalis and two isolates of Saccharomyces cerevisiae were also used in this study and were maintained on Sabouraud Dextrose agar plates at 4° C. A single yeast colony was cultured overnight at 33° C. in 1% phytone peptone broth (Becton Dickinson, Sparks Md.) with 0.1% D-glucose (Sigma).
(§2) Stock solutions of all peptides were made up at concentrations of 1 mg/ml in sterile endotoxin-free water for irrigation (Baxter, Deerfield, Ill.). Subsequent dilutions were all made in tryptone saline pH 5.5 (Shafer et al., Infect Immun, 1984). […] The optical density was read and the culture adjusted to 500 blastospores/100 μl in tryptone saline pH 5.5 (Shafer et al., Infect Immun, 1984). […] The colony forming units (cfu) were counted and the fungicidal activity was expressed as percent killed and calculated according to the following equation: [(control cfu−test cfu)/control cfu]×100=% killed. […] Test cfu is determined by counting the number of colonies present after incubation in tryptone saline containing the peptide. […]

C. dubliniensis = experiment: In vitro candidacidal assay, C. dubliniensis; assay type: cell-based; settings: two isolates; 400 μg/ml (150 μM)
Description: as §1, §2

Candida albicans = assay type: cell-based
Description: as §1
Stock solutions of all peptides were made up at concentrations of 1 mg/ml in sterile endotoxin-free water for irrigation (Baxter, Deerfield, Ill.). Subsequent dilutions were all made in tryptone saline pH 5.5 (Shafer et al., Infect Immun, 1984). An aliquot (100 μl) of an overnight culture of a single colony grown at 33° C. in 1% phytone peptone broth with 0.1% glucose was subcultured in 5 ml of 1% phytone peptone broth with 0.1% glucose and incubated in a shaking water bath (80 oscillations per min, Precision, Winchester, Va.) for 90 min at 33° C. to yield a logarithmic culture. […] The optical density was read and the culture adjusted to 500 blastospores/100 μl in tryptone saline pH 5.5 (Shafer et al., Infect Immun, 1984). To 100 μl of the organism suspension in a 96 well sterile polystyrene microtiter plate (Becton Dickinson, Franklin Lakes, N.J.) was added 100 μl of the peptide (final concentrations 400 μg/ml and 200 μg/ml) or 100 μl of tryptone saline. The latter served as a control. The microtiter plate was incubated at 37° C. for 4 hr and 100 μl of the contents from each well was plated on Sabouraud Dextrose agar plates and incubated at 37° C. overnight. The colony forming units (cfu) were counted and the fungicidal activity was expressed as percent killed and calculated according to the following equation: [(control cfu−test cfu)/control cfu]×100=% killed. Control cfu is indicated by the number of colonies present after […] of incubation in tryptone saline alone in the absence of peptide. Test cfu is determined by counting the number of colonies present after incubation in tryptone saline containing the peptide. Each experimental point was performed in triplicate.
C. albicans (ATCC 28367) was used to standardize the in vitro killing assay. We explored the optimal growth conditions (temperature and time, 25° C. for 5 h and 33° C. for 90 min), numbers of blastospores per well (200, 400, 500, 600, 800, and 1000 cfu), range of peptide concentrations (750, 500, 400, 200 and 100 μg/ml) and the contact time between peptide and Candida (1, 2 and 4 hr) for killing to occur. […] The 90 minute incubation was more convenient technically and was therefore employed routinely. The optimum numbers of cfu per well was determined to be 500 and an incubation time of 4 hr at 37° C. between Candida and peptide was required to obtain optimal killing.

C. tropicalis = experiment: In vitro candidacidal assay, C. tropicalis; assay type: cell-based; settings: 400 μg/ml (150 μM)
Description: as §1, §2

[2] = system: Salmonella typhimurium, Escherichia coli, and Pseudomonas aeruginosa; settings: Gram negative organisms; cited from earlier work
[3] = system: C. albicans (fluconazole sensitive isolate); experiment: FUN-1 vital dye yeast viability, confocal microscopy, C. albicans; assay type: cell-based, Candida albicans; settings: 400 μg/ml, 37° C. for 2 hr
Description: Yeast viability was also assessed using the FUN-1 Live/Dead Yeast Viability Kit (Molecular Probes, Eugene, Oreg.). The methodology employed was essentially according to the protocol provided by the vendor for use with fluorescent microscopy. Briefly, yeast cultures were prepared exactly as stated above. C. glabrata, C. pseudotropicalis, C. albicans (fluconazole sensitive isolate) and S. cerevisiae (5×10^5 cfu in 100 μl of tryptone saline) were incubated (37° C. for 2 hr) in the absence or presence of peptide (CAP37(20-44)nat and CAP37(20-44)ser26/42) at a final concentration of 400 μg/ml. At the end of the incubation period, the samples were transferred to microcentrifuge tubes and centrifuged (10,000×g for 3 min at room temperature). The supernatant was removed and the pellet resuspended in 25 μl of GH solution (2% D-glucose containing 10 mM Na-HEPES, pH 7.2) as described in the technical data sheet provided by the vendor. A working solution of the FUN-1 reagent (100 μl of 10 μM) was prepared from 10 mM stock solution and 25 μl (final concentration 5 μM) added to the yeast and incubated at room temperature for 30 min. A sample (10 μl) was placed on a microscope slide and staining observed under a Leica TCS NT confocal microscope using Ar-488 and Kr-568 Lasers and 63x Plan APO 1.2 NA water immersion objective. Images were scanned and analyzed using the Leica TCS software.

CC[C@H](C)[C@H](NC(=O)[C@H](CC(C)C)NC(=O)[C@H](C)NC(=O)CNC(=O)CNC(=O)[C@H](CS)NC(=O)[C@H](Cc1ccccc1)NC(=O)[C@H](Cc1c[nH]cn1)NC(=O)[C@H](CCCNC(=N)N)NC(=O)CNC(=O)[C@H](CCC(N)=O)NC(=O)[C@@H](N)CC(N)=O)C(=O)N[C@@H](Cc1c[nH]cn1)C(=O)N[C@@H](C)C(=O)N[C@@H](CCCNC(=N)N)C(=O)N[C@@H](Cc1ccccc1)C(=O)N[C@H](C(=O)N[C@@H](CCSC)C(=O)N[C@H](C(=O)N[C@@H](C)C(=O)N[C@@H](C)C(=O)N[C@@H](CO)C(=O)N[C@@H](CS)C(=O)N[C@@H](Cc1ccccc1)C(=O)N[C@@H](CCC(N)=O)C(=O)O)[C@@H](C)O)C(C)C [CAP37(20-44)nat, NQGRHFCGGALIHARFVMTAASCFQ] (H-NQGRHFCGGALIHARFVMTAASCFQ-OH; N-terminus and C-terminus assumed)
efficacy against lethal effects of LPS [1]: attenuating the lethal effects | activity against C. glabrata (C. glabrata): effective against both isolates of C. dubliniensis and one isolate of C. glabrata, although to a lesser extent | activity against C. dubliniensis (C. dubliniensis): effective against both isolates of C. dubliniensis and one isolate of C. glabrata, although to a lesser extent | killing (Candida albicans): > 75% | killing with varying peptide concentrations (Candida albicans; C. albicans ATCC 28367, 750, 500, 400, 200 and 100 μg/ml): Dose dependent killing | killing of blood isolate of Candida (Candida albicans; blood isolate of C. albicans, 400 μg/ml (150 μM)): killed | peptide concentration required for activity (Candida albicans; fluconazole resistant isolate A-46): 400 µg/mL | activity at the lower concentration (Candida albicans; fluconazole resistant isolates A-5 and A-20, 200 μg/ml or 75 μM): significant activity | activity against C. albicans (Candida albicans; in vitro killing efficacy): significant activity | fungicidal or fungistatic effect (Candida albicans; isolates A-5, A-20, A-46 and A-155, viable colony counts versus starting inoculum): fungicidal rather than fungistatic | activity against fluconazole resistant isolates (Candida albicans; isolates A-5 and A-20): highly active | activity against fluconazole sensitive isolates (Candida albicans; isolates A-155, A-22 and A-111, 400 μg/ml): strongly active | activity against C. tropicalis (C. tropicalis): killed | bactericidal activity [2]: potent bactericidal activity; also recorded: mimicked the antimicrobial activity of the native molecule | blastoconidia stained green or green-yellow (dead) [3]: 70-80%
